According to article PMC9632963, “Preclinical characterization and phase I clinical trial of CT053PTSA targets MET, AXL, and VEGFR2 in patients with advanced solid tumors” (Frontiers in Immunology, 2022):

Key:
EphA4 = EphA4 (Homo sapiens, UniProt P54764); test: Kinase inhibition assay (LANCE or HTRF); type: biochemical; conditions: ATP at Km
Experimental: (§3) The IC50 values were determined by measuring phosphorylation of peptide substrate poly at ATP concentrations at the Km.

NUGC3 = test: Cell proliferation assay (CellTiter-Glo, 72 hours); type: cell-based; conditions: Homo sapiens, NUGC-3, read-out: IC50 anti-proliferative
Experimental: Human gastric tumor cell lines with high MET expression levels, namely, the GTL-16, MKN45, SNU638, Hs746T, SNU-620, and SNU-5 cell lines, were used in the assay. These cell lines were obtained from American Type Culture Collection (ATCC), Japanese Collection of Research Bioresources (JCRB), Shanghai Institutes of Biological Sciences, CAS (SIBS), Korean Cell Line Bank (KCLB) or National Institutes of Health (NIH). […] Cell viability was measured after 72 hours using a CellTiter-Glo Luminescent Cell Viability Assay Kit (Promega, WI, USA) according to the manufacturer’s instructions.

AXL = AXL (Homo sapiens, UniProt P30530); test: Kinase inhibition assay (LANCE or HTRF); type: biochemical; parameters: expressing full-length human AXL (AXL-MEFs); expressed in transfected cells; host or cells: mouse embryonic fibroblasts (MEFs); conditions: ATP at Km
Experimental: as §3

MKN74 = test: Cell proliferation assay (CellTiter-Glo, 72 hours); type: cell-based; conditions: Homo sapiens, MKN-74, read-out: IC50 anti-proliferative
[1] = system: gastric tumor cell lines with low MET mRNA levels; test: cells; conditions: Homo sapiens, read-out: average IC50 value
Experimental: (§1) These cell lines were obtained from American Type Culture Collection (ATCC), Japanese Collection of Research Bioresources (JCRB), Shanghai Institutes of Biological Sciences, CAS (SIBS), Korean Cell Line Bank (KCLB) or National Institutes of Health (NIH). […] Cell viability was measured after 72 hours using a CellTiter-Glo Luminescent Cell Viability Assay Kit (Promega, WI, USA) according to the manufacturer’s instructions.
(§2) The MET mRNA expression level in each human gastric cell lines was evaluated with real-time PCR. Glyceraldehyde-3-phosphate dehydrogenase (GAPDH) was considered as the internal control. The amplification was performed in a 20 μl mixture containing 10 μl of TaqMan Universal PCR Master Mix (Invitrogen, CA, USA) with UNG, 1 μl of the MET (Hs01565584_m1) or GAPDH (Hs02786624_g1) TaqMan Gene Expression Assay (Thermo, CA, USA), and 5 μl of cDNA solution. Each sample was analyzed in triplicate on an Agilent Technologies Stratagenes Mx3005P (CA, USA). Relative MET mRNA expression is presented as the fold-change, which was calculated using the 2^ (-ΔΔCt) method.

[2] = system: gastric tumor cell lines with high MET mRNA levels; test: cells; conditions: Homo sapiens, read-out: average IC50 value
Experimental: as §1, §2

[3] = biological target: KinomeScan panel of 95 kinase binding assays; test: KinomeScan kinase binding assay, panel of 95 kinase assays; conditions: 10 μM single concentration
Experimental: KinomeScan kinase binding assays were performed as described in reports i.
%Ctrl Calculation: [test compound signal-positive control signalnegative control signal-positive control signal]?100
test compound = compound submitted by Calitor; negative control = DMSO (100%Ctrl); positive control = control compound (0%Ctrl).

SNU638 = test: Cell proliferation assay (CellTiter-Glo, 72 hours); type: cell-based; conditions: Homo sapiens, SNU-638, read-out: IC50 anti-proliferative
Experimental: (§4) Human gastric tumor cell lines with high MET expression levels, namely, the GTL-16, MKN45, SNU638, Hs746T, SNU-620, and SNU-5 cell lines, were used in the assay. […] Cell viability was measured after 72 hours using a CellTiter-Glo Luminescent Cell Viability Assay Kit (Promega, WI, USA) according to the manufacturer’s instructions.

NCI-N87 = test: Cell proliferation assay (CellTiter-Glo, 72 hours); type: cell-based; conditions: Homo sapiens, read-out: IC50 anti-proliferative
SNU-484 = test: Cell proliferation assay (CellTiter-Glo, 72 hours); type: cell-based; conditions: Homo sapiens, read-out: IC50 anti-proliferative
FLT3 = FLT3 (Homo sapiens, UniProt P36888); test: Kinase inhibition assay (LANCE or HTRF); type: biochemical; conditions: ATP at Km
Experimental: as §3

MERTK = MERTK (Homo sapiens, UniProt Q12866); test: Kinase inhibition assay (LANCE or HTRF); type: biochemical; conditions: ATP at Km
MERTK, sequence (Q12866 21-999): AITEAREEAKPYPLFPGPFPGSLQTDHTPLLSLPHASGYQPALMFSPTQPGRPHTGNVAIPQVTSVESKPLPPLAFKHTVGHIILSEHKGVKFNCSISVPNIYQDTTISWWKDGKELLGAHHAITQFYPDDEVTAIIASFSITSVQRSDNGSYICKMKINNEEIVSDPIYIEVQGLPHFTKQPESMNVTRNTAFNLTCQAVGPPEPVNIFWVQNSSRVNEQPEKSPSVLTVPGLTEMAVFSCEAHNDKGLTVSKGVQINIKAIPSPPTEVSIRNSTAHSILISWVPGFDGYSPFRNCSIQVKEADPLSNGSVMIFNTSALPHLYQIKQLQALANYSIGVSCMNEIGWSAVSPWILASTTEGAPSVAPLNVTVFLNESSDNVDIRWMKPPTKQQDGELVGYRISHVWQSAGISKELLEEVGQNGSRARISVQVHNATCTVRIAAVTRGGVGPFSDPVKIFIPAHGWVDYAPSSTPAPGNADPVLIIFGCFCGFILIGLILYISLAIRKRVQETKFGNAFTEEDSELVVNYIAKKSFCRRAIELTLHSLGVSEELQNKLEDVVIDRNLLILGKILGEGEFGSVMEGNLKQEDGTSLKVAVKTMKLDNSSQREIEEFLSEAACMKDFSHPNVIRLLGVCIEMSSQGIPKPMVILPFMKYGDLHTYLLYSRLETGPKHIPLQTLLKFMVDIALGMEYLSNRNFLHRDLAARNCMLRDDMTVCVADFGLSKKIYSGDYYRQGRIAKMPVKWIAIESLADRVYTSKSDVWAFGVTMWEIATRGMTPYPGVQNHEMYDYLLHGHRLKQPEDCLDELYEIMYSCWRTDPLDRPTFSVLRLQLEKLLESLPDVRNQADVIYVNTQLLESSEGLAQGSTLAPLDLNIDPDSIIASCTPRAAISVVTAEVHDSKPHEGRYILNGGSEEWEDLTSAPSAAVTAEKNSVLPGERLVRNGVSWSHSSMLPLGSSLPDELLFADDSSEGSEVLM
Experimental: as §3

LnyA = LnyA (Homo sapiens, UniProt P07948); test: Kinase inhibition assay (LANCE or HTRF); type: biochemical; conditions: ATP at Km
Experimental: as §3

Musk = Musk (Homo sapiens, UniProt O15146); test: Kinase inhibition assay (LANCE or HTRF); type: biochemical; conditions: ATP at Km
Experimental: as §3

EphA8 = EphA8 (Homo sapiens, UniProt P29322); test: Kinase inhibition assay (LANCE or HTRF); type: biochemical; conditions: ATP at Km
EphA8, sequence (P29322 28-1005): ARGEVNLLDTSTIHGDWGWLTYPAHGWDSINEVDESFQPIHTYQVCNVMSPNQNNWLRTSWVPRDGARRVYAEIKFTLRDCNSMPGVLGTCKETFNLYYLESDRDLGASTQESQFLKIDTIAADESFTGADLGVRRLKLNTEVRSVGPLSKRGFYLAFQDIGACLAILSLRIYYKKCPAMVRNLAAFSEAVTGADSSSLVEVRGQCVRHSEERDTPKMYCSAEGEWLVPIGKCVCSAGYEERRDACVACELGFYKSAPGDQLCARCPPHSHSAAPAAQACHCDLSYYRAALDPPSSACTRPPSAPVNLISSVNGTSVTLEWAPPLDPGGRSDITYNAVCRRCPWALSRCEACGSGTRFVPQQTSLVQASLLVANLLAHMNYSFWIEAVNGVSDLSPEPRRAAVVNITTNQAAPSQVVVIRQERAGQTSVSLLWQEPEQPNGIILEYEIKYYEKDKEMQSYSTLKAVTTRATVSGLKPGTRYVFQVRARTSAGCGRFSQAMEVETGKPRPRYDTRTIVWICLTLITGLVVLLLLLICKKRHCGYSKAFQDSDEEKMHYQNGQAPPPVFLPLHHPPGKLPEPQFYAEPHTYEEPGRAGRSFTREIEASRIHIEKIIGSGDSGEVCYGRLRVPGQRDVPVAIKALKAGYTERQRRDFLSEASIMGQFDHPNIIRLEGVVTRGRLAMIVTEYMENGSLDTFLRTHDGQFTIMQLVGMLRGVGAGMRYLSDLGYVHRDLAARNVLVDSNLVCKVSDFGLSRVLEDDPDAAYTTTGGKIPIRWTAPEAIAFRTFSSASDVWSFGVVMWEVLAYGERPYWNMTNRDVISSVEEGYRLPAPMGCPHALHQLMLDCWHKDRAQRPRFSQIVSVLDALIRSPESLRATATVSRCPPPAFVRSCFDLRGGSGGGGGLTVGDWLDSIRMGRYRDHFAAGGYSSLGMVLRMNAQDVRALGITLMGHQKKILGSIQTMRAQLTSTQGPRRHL
Experimental: as §3

PDGFRα = PDGFRα (Homo sapiens, UniProt P16234); test: Kinase inhibition assay (LANCE or HTRF); type: biochemical; conditions: ATP at Km
PDGFRα, sequence (P16234 24-1089): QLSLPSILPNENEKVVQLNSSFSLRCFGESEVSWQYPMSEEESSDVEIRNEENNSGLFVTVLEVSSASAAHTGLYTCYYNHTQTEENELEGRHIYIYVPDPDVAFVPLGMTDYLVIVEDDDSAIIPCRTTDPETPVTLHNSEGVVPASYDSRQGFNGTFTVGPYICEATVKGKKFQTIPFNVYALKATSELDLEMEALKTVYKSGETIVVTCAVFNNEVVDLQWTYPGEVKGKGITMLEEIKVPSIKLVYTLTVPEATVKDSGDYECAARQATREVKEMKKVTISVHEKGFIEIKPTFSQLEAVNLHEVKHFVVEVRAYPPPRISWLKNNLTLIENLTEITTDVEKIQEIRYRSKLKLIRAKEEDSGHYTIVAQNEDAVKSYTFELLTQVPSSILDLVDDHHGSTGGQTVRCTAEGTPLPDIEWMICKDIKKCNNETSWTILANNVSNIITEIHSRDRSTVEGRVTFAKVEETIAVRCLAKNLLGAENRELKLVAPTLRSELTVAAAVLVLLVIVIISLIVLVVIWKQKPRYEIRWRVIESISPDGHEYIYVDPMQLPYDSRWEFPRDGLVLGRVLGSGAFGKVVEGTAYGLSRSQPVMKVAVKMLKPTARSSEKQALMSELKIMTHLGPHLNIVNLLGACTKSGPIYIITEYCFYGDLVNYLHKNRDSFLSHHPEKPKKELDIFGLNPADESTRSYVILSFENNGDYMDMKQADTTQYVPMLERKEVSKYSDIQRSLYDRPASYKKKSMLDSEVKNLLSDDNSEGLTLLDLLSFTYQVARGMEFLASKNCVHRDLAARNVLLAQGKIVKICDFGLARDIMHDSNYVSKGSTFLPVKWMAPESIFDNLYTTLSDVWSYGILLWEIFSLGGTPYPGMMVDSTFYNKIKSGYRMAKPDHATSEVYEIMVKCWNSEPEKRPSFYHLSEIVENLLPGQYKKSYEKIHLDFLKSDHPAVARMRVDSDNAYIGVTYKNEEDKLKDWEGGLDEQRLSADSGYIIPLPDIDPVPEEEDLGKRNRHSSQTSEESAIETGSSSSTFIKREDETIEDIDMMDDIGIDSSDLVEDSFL
Experimental: as §3

FLT1 = FLT1 (Homo sapiens, UniProt P17948); test: Kinase inhibition assay (LANCE or HTRF); type: biochemical; conditions: ATP at Km
Experimental: as §3

Fgr = Fgr (Homo sapiens, UniProt P09769); test: Kinase inhibition assay (LANCE or HTRF); type: biochemical; conditions: ATP at Km
Fgr, sequence (P09769 whole entry): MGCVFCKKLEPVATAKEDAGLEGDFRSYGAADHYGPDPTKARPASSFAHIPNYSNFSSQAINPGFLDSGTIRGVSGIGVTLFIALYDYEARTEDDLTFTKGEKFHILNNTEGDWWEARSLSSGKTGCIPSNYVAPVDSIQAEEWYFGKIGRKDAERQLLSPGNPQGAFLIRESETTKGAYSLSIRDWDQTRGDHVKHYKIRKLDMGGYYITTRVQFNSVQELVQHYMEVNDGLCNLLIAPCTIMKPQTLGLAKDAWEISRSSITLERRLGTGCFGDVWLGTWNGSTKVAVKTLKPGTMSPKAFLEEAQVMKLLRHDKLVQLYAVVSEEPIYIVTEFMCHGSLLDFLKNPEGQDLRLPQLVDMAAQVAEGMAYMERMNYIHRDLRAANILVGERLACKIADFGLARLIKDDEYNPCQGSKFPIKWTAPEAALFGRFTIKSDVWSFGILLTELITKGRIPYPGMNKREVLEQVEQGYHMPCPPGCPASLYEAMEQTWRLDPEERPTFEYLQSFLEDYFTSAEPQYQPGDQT
Experimental: as §3

C-KIT = C-KIT (Homo sapiens, UniProt P10721); test: Kinase inhibition assay (LANCE or HTRF); type: biochemical; conditions: ATP at Km
Experimental: as §3

AGS = test: Cell proliferation assay (CellTiter-Glo, 72 hours); type: cell-based; conditions: Homo sapiens, read-out: IC50 anti-proliferative
HIPK4 = HIPK4 (Homo sapiens, UniProt Q8NE63); test: Kinase inhibition assay (LANCE or HTRF); type: biochemical; conditions: ATP at Km
Experimental: as §3

KATOIII = test: Cell proliferation assay (CellTiter-Glo, 72 hours); type: cell-based; conditions: Homo sapiens, KATO III, read-out: IC50 anti-proliferative
MNK2 = MNK2 (Homo sapiens, UniProt Q9HBH9); test: Kinase inhibition assay (LANCE or HTRF); type: biochemical; conditions: ATP at Km
Experimental: as §3

GTL16 = test: Cell proliferation assay (CellTiter-Glo, 72 hours); type: cell-based; conditions: Homo sapiens, GTL 16, read-out: IC50 anti-proliferative
Experimental: as §4

MKN45 = test: Cell proliferation assay (CellTiter-Glo, 72 hours); type: cell-based; conditions: Homo sapiens, MKN-45, read-out: IC50 anti-proliferative
Experimental: as §4

FLT4 = FLT4 (Homo sapiens, UniProt P35916); test: Kinase inhibition assay (LANCE or HTRF); type: biochemical; conditions: ATP at Km
FLT4, sequence (P35916 25-1363): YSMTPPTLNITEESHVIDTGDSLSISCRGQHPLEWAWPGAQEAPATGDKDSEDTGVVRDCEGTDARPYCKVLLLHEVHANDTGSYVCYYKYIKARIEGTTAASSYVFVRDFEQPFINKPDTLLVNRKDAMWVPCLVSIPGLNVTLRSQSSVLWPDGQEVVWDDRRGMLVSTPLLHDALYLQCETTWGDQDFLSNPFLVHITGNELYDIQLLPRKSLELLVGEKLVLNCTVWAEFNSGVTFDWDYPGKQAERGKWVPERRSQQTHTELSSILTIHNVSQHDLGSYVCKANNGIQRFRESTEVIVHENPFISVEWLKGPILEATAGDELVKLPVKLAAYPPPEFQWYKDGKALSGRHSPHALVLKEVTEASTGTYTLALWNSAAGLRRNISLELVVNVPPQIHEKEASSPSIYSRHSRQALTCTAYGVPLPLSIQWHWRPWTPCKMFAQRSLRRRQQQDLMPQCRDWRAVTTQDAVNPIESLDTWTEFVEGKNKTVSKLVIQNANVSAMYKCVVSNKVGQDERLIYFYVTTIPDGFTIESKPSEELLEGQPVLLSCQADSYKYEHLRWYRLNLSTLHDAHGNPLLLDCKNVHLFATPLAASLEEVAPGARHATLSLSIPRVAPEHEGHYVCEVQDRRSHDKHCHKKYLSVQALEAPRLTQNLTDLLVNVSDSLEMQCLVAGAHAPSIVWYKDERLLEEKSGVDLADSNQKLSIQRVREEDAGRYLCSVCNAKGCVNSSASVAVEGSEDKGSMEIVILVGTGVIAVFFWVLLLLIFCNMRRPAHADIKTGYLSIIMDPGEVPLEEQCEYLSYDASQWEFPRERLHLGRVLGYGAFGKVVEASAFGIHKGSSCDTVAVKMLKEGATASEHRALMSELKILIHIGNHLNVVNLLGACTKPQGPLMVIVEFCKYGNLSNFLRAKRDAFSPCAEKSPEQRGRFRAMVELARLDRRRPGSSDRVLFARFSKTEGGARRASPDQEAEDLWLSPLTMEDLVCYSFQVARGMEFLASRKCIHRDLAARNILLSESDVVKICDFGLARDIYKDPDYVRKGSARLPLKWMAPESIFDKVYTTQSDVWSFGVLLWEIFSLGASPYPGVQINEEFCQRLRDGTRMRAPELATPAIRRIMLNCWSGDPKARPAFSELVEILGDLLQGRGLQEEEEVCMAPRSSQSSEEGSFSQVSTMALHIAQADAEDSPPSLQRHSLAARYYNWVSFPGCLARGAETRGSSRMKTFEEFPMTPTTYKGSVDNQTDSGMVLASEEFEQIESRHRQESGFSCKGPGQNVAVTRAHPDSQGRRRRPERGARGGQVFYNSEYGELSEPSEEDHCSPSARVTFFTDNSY
Experimental: as §3

## Cc1c(C(=O)Nc2ccc(Oc3ccnc4cc(OCC(C)(C)O)ccc34)c(F)c2)c(=O)n(-c2ccccc2)n1C [CT053]
EphA4
  IC50: 370 nM
NUGC3
  IC50: > 10000 nM
AXL
  IC50: 3.4 nM
MKN74
  IC50: 6880 nM
[1]
  IC50: > 10000 nM
[2]
  IC50: 95 nM
[3]
  kinase interaction pattern: highly specific
SNU638
  IC50: 90 nM
NCI-N87
  IC50: > 10000 nM
SNU-484
  IC50: 8500 nM
FLT3
  IC50: 8.6 nM
MERTK
  IC50: 14 nM
LnyA
  IC50: 240 nM
Musk
  IC50: 310 nM
EphA8
  IC50: 620 nM
PDGFRα
  IC50: 390 nM
FLT1
  IC50: 6100 nM
Fgr
  IC50: 77 nM
C-KIT
  IC50: 960 nM
AGS
  IC50: > 10000 nM
HIPK4
  IC50: 180 nM
KATOIII
  IC50: > 10000 nM
MNK2
  IC50: 55 nM
GTL16
  IC50: 170 nM
MKN45
  IC50: 100 nM
FLT4
  IC50: 46 nM
